In brackets after ≈: the same amount, converted by molar mass.
Tests used:
[1] = pH 7.4
[2] = test system: SEB-induced IFN-γ production; assay: cells; assay type: cell-based; details: Homo sapiens, PBMC, 18 h, read-out: IFN-γ IC50
[3] = test system: LPS-induced TNF-α production from human PBMC; assay: LPS-induced TNF-α production from human PBMC; assay type: cell-based; details: LPS 100 ng/ml, 18-20 hours
Method: Lipopolysaccharide (LPS) is an endotoxin produced by gram-negative bacteria such as E. coli which induces production of many pro-inflammatory cytokines, including TNF-α. In peripheral blood mononuclear cells (PBMC), the TNF-α produced in response to LPS is derived from monocytes, which comprise approximately 5-20% of the total PBMC. Compounds were tested for the ability to inhibit LPS-induced TNF-α production from human PBMC as previously described (Muller et al., 1996, J. Med. Chem., 39:3238). PBMC from normal donors were obtained by Ficoll Hypaque (Pharmacia, Piscataway, N.J., USA) density centrifugation. Cells were cultured in RPMI (Life Technologies, Grand Island, N.Y., USA) supplemented with 10% AB±human serum (Gemini Bio-products, Woodland, Calif., USA), 2 mM L-glutamine, 100 U/ml penicillin, and 100 μg/ml streptomycin (Life Technologies).
PBMC (2×10^5 cells) were plated in 96-well flat-bottom Costar tissue culture plates (Corning, N.Y., USA) in triplicate. Cells were stimulated with LPS (Sigma, St. Louis, Mo., USA) at 100 ng/ml in the absence or presence of compounds. Compounds (Celgene Corp., Warren, N.J., USA) were dissolved in DMSO (Sigma) and further dilutions were done in culture medium immediately before use. The final DMSO concentration in all samples was 0.25%. Compounds were added to cells one hour before LPS stimulation. […]

[4] = test system: LPS-induced neutrophilia in the lungs of conscious ferrets; assay: LPS-induced lung neutrophilia ferret model; assay type: in vivo; details: Mustela putorius, po, read-out: Inhibition of LPS-induced neutrophilia (ED50)
[5] = test system: CD18 expression on neutrophils; assay: fMLF-induced CD18 expression on neutrophils; assay type: cell-based; details: Neutrophil; human neutrophils, 30 nM fMLF
Method: CD18/CD11b (Mac-1) expression on neutrophils was measured as previously described (Derian et al., 1995, J. Immunol., 154:308-3 17) with the following modifications. Neutrophils were isolated as described above, then resuspended in complete medium at 1×10^6 cells/ml, pretreated with compounds at 10, 1, 0.1, 0.01, and 0 μM in duplicate at a final DMSO concentration of 0.1% for 10 minutes at 37° C. 5% CO2. Cells were then stimulated with 30 nM fMLF for 30 minutes and then chilled to 4° C. Cells were treated with rabbit IgG (Jackson ImmunoResearch Labs, West Grove, Pa., USA) (10 μg/1×10^6 cells) to block Fc receptors, stained with CD18-FITC and CD11b-PE (Becton Dickinson), and analyzed by flow cytometry on a FACSCalibur. CD18/CD11b expression (mean fluorescence) in the absence of stimulation was subtracted from all samples to obtain inhibition curves and calculate IC50 values.

physchem = details: pH 7.4, aqueous buffer, thermodynamic from solid
[6] = test system: neutrophil adhesion to HUVEC; assay: fMLF-induced adhesion to HUVEC; assay type: cell-based; details: human neutrophils, 500 nM fMLF
Method: Human umbilical vein endothelial cells (HUVEC) were used as a substrate for neutrophil adhesion as previously described (Derian et al., 1995, J. Immunol., 154:308-317) with the following modifications. HUVEC cells were obtained from Anthrogenesis (Cedar Knolls, N.J., USA), and neutrophils were not treated with cytochalasin B. Cells were treated with compounds at 10, 1, 0.1, 0.01, 0.001, and 0 μM in a final DMSO concentration of 0.1% in duplicate for 10 minutes, stimulated with 500 nM fMLF for 30 minutes, and washed twice with PBS before measuring fluorescence on an FLX800 plate reader (Bio-Tek Instruments, Winooski, Vt., USA).

PDE4 (from U937 cells) = assay: PDE4 (U937 cell-derived) enzyme assay; assay type: biochemical, human; details: 1 μM cAMP
[7] = test system: moderate to severe plaque-type psoriasis; assay: Phase 2 randomized placebo-controlled study in moderate-to-severe psoriasis; assay type: in vivo, human
Method: This phase 2, multicenter, randomized, double-blind, placebo-controlled, parallel-group, dose-comparison study evaluated the efficacy and safety of Compound A in subjects with moderate to severe plaque-type psoriasis who were candidates for systemic therapy. This study included a 12-week treatment phase followed by a 4-week observational follow-up phase. A total of 260 subjects were randomized to receive Compound A 20 mg BID, Compound A 20 mg QD, or placebo for 12 weeks. The primary endpoint for this study was the proportion of subjects treated with Compound A who achieved a 75% reduction in Psoriasis Area and Severity Index score (“PASI-75”) at week 12/last treatment in reference to the baseline visit. Last treatment is defined as the last PASI assessment completed during the 12-week treatment phase.

[8] = 20 mg BID, week 12/last treatment

CCOc1cc(C(CS(C)(=O)=O)N2C(=O)c3cccc(NC(C)=O)c3C2=O)ccc1OC (single isomer, unassigned; (+)) [Compound A, (+)-2-[1-(3-ethoxy-4-methoxyphenyl)-2-methylsulfonylethyl]-4-acetylaminoisoindoline-1,3-dione]
aqueous solubility relative to the racemic mixture [1]: 3.5 fold | IC50 [2]: 46 nM | IC50 [3]: 77 nM | ED50 [4]: 0.8 mg/kg | IC50 [5]: 390 nM | solubility (physchem): 12 µg/mL (≈ 26.1 µM) | IC50 [6]: 150 nM | IC50 (PDE4 (from U937 cells)): 73.5 nM | psoriasis flare during the observational follow-up period ([7]; 20 mg BID group, 4-week follow-up): No subjects | study drug-related serious adverse events ([7]; 20 mg BID or 20 mg QD, 12 weeks): No study drug-related serious adverse events | mean decrease in PASI from baseline [7, 8]: 52% | proportion of subjects achieving PASI-50 [7, 8]: 57% | proportion of subjects achieving PASI-90 [7, 8]: 14% | proportion of subjects achieving PASI-75 ([7]; 20 mg BID, week 12/last treatment, P=0.023 vs placebo): 24% | tolerability and safety ([7]; 12 weeks of treatment): well tolerated and safe

From patent US8629173B2, “Solid forms comprising (+)-2-[1-(3-ethoxy-4-methoxyphenyl)-2-methylsulfonylethyl]-4-acetylaminoisoindoline-1,3-dione, compositions thereof, and uses thereof” (Celgene Corporation, priority 2002, dated 2014)
